In the NIST ThermoML archive (doi:10.1016/j.fluid.2019.05.003):

Experiment: xn = mol fraction of the nth substance listed
Conditions: 101 kPa, Liquid; for viscosity: Falling or rolling sphere viscometry; for mass density: Vibrating tube method

CC[n+]1ccccc1.[Br-] [1-ethylpyridinium bromide] + O
Conditions	mass density [kg/m3]	viscosity [mPa·s]
298.15 K, x1 = 0.027	1069.4	1.203
298.15 K, x1 = 0.049	1113.8	1.483
298.15 K, x1 = 0.063	1139.5	1.75
298.15 K, x1 = 0.086	1174.3	2.18
298.15 K, x1 = 0.101	1194.1	2.507
298.15 K, x1 = 0.147	1243.9	3.769
298.15 K, x1 = 0.184	1274.6	5.028
298.15 K, x1 = 0.213	1294.5	6.298
298.15 K, x1 = 0.25	1315.3	8.734
298.15 K, x1 = 0.299	1337	10.5
298.15 K, x1 = 0.341	1352.3	13.33
298.15 K, x1 = 0.401	1370.9	19.65
298.15 K, x1 = 0.451	1381.1	25.82
303.15 K, x1 = 0.027	1067.4	1.071
303.15 K, x1 = 0.049	1111.4	1.339
303.15 K, x1 = 0.063	1137	1.554
303.15 K, x1 = 0.086	1171.6	1.913
303.15 K, x1 = 0.101	1191.2	2.215
303.15 K, x1 = 0.147	1240.8	3.293
303.15 K, x1 = 0.184	1271.3	4.402
303.15 K, x1 = 0.213	1291.1	5.427
303.15 K, x1 = 0.25	1311.9	7.646
303.15 K, x1 = 0.299	1333.6	8.868
303.15 K, x1 = 0.341	1348.8	11.27
303.15 K, x1 = 0.401	1367.4	16.67
303.15 K, x1 = 0.451	1378	21.6
308.15 K, x1 = 0.027	1065.2	0.969
308.15 K, x1 = 0.049	1109	1.207
308.15 K, x1 = 0.063	1134.3	1.393
308.15 K, x1 = 0.086	1168.7	1.728
308.15 K, x1 = 0.101	1188.2	1.966
308.15 K, x1 = 0.147	1237.6	2.911
308.15 K, x1 = 0.184	1268	3.821
308.15 K, x1 = 0.213	1287.7	4.737
308.15 K, x1 = 0.25	1308.5	6.664
308.15 K, x1 = 0.299	1330.2	7.711
308.15 K, x1 = 0.341	1345.4	9.653
308.15 K, x1 = 0.401	1364	14.3
308.15 K, x1 = 0.451	1374.6	18.22
313.15 K, x1 = 0.027	1062.8	0.882
313.15 K, x1 = 0.049	1106.4	1.093
313.15 K, x1 = 0.063	1131.6	1.26
313.15 K, x1 = 0.086	1165.8	1.565
313.15 K, x1 = 0.101	1185.2	1.768
313.15 K, x1 = 0.147	1234.3	2.591
313.15 K, x1 = 0.184	1264.6	3.38
313.15 K, x1 = 0.213	1284.3	4.172
313.15 K, x1 = 0.25	1305	5.814
313.15 K, x1 = 0.299	1326.7	6.713
313.15 K, x1 = 0.341	1341.9	8.366
313.15 K, x1 = 0.401	1360.5	12.27
313.15 K, x1 = 0.451	1371.1	15.47
318.15 K, x1 = 0.027	1061	0.808
318.15 K, x1 = 0.049	1103.7	1.004
318.15 K, x1 = 0.063	1128.8	1.146
318.15 K, x1 = 0.086	1162.8	1.414
318.15 K, x1 = 0.101	1182.1	1.599
318.15 K, x1 = 0.147	1230.9	2.321
318.15 K, x1 = 0.184	1261.3	3.012
318.15 K, x1 = 0.213	1280.9	3.702
318.15 K, x1 = 0.25	1301.6	5.096
318.15 K, x1 = 0.299	1323.3	5.898
318.15 K, x1 = 0.341	1338.5	7.312
318.15 K, x1 = 0.401	1357.1	10.62
318.15 K, x1 = 0.451	1367.7	13.29
323.15 K, x1 = 0.027	1058.9	0.744
323.15 K, x1 = 0.049	1100.6	0.92
323.15 K, x1 = 0.063	1125.8	1.047
323.15 K, x1 = 0.086	1159.7	1.287
323.15 K, x1 = 0.101	1179	1.456
323.15 K, x1 = 0.147	1227.7	2.096
323.15 K, x1 = 0.184	1257.9	2.702
323.15 K, x1 = 0.213	1277.5	3.309
323.15 K, x1 = 0.25	1298.1	4.482
323.15 K, x1 = 0.299	1319.8	5.226
323.15 K, x1 = 0.341	1335	6.446
323.15 K, x1 = 0.401	1353.7	9.272
323.15 K, x1 = 0.451	1364.3	11.53
328.15 K, x1 = 0.027	1056.7	0.695
328.15 K, x1 = 0.049	1097.6	0.846
328.15 K, x1 = 0.063	1122.7	0.961
328.15 K, x1 = 0.086	1156.6	1.18
328.15 K, x1 = 0.101	1175.8	1.332
328.15 K, x1 = 0.147	1224.4	1.9
328.15 K, x1 = 0.184	1254.4	2.439
328.15 K, x1 = 0.213	1274	2.977
328.15 K, x1 = 0.25	1294.7	3.973
328.15 K, x1 = 0.299	1316.3	4.663
328.15 K, x1 = 0.341	1331.6	5.733
328.15 K, x1 = 0.401	1350.2	8.204
328.15 K, x1 = 0.451	1360.8	10.13
333.15 K, x1 = 0.027	1054.6	0.644
333.15 K, x1 = 0.049	1095.3	0.787
333.15 K, x1 = 0.063	1119.5	0.889
333.15 K, x1 = 0.086	1153.8	1.088
333.15 K, x1 = 0.101	1172.5	1.222
333.15 K, x1 = 0.147	1221	1.737
333.15 K, x1 = 0.184	1251	2.216
333.15 K, x1 = 0.213	1270.6	2.698
333.15 K, x1 = 0.25	1291.2	3.554
333.15 K, x1 = 0.299	1312.9	4.186
333.15 K, x1 = 0.341	1328.1	5.129
333.15 K, x1 = 0.401	1346.8	7.29
333.15 K, x1 = 0.451	1357.4	8.99
338.15 K, x1 = 0.027	1052.4	0.612
338.15 K, x1 = 0.049	1092.6	0.734
338.15 K, x1 = 0.063	1116.8	0.825
338.15 K, x1 = 0.086	1150.9	1.006
338.15 K, x1 = 0.101	1169.1	1.118
338.15 K, x1 = 0.147	1217.5	1.582
338.15 K, x1 = 0.184	1247.5	2.019
338.15 K, x1 = 0.213	1267.1	2.42
338.15 K, x1 = 0.25	1287.7	3.118
338.15 K, x1 = 0.299	1309.4	3.788
338.15 K, x1 = 0.341	1324.7	4.616
338.15 K, x1 = 0.401	1343.4	6.5
338.15 K, x1 = 0.451	1354	8.008
343.15 K, x1 = 0.027	1050.3	0.58
343.15 K, x1 = 0.049	1089.9	0.689
343.15 K, x1 = 0.063	1113.8	0.771
343.15 K, x1 = 0.086	1147.9	0.941
343.15 K, x1 = 0.101	1166.3	1.045
343.15 K, x1 = 0.147	1214	1.465
343.15 K, x1 = 0.184	1244	1.855
343.15 K, x1 = 0.213	1263.5	2.245
343.15 K, x1 = 0.25	1284.2	2.805
343.15 K, x1 = 0.299	1305.9	3.416
343.15 K, x1 = 0.341	1321.2	4.159
343.15 K, x1 = 0.401	1339.9	6.011
343.15 K, x1 = 0.451	1350.6	7.3
348.15 K, x1 = 0.027	1048.2	0.549
348.15 K, x1 = 0.049	1087.2	0.649
348.15 K, x1 = 0.063	1110.9	0.724
348.15 K, x1 = 0.086	1144.9	0.886
348.15 K, x1 = 0.101	1163.2	0.982
348.15 K, x1 = 0.147	1211.1	1.355
348.15 K, x1 = 0.184	1240.4	1.706
348.15 K, x1 = 0.213	1260	2.06
348.15 K, x1 = 0.25	1280.6	2.589
348.15 K, x1 = 0.299	1302.4	3.124
348.15 K, x1 = 0.341	1317.7	3.785
348.15 K, x1 = 0.401	1336.5	5.338
348.15 K, x1 = 0.451	1347.1	6.657
